Experimental data from article PMC11977255 (Communications Biology, 2025).

Columns and labels:
McyI [1] = molecular target: T1, McyI (Anabaena sp. 90, UniProt Q7WRR2); assay: isothermal titration calorimetry; assay type: binding
McyI [2] = molecular target: T1, McyI; assay: reductase assay, absorbance at […] nm; assay type: biochemical; conditions: 1 mM OAA, 0.2 mM NADPH, 1.6 μM enzyme

T1 sequence (Q7WRR2 1-337 limits assumed): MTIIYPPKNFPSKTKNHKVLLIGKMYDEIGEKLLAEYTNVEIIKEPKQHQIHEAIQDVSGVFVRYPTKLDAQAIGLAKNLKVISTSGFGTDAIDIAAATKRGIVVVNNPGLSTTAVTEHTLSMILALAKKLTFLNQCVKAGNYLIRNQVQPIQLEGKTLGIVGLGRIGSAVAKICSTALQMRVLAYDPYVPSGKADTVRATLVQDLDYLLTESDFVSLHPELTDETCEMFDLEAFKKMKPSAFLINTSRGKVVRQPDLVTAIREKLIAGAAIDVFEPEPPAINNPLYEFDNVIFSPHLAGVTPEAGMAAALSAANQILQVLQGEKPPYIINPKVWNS

SMILES | Kd (McyI [1]) [µM] | reductase assay, absorbance at 340 nm (McyI [2])
NC(=O)C1=CN([C@@H]2O[C@H](COP(=O)(O)OP(=O)(O)OC[C@H]3O[C@@H](n4cnc5c(N)ncnc54)[C@H](OP(=O)(O)O)[C@@H]3O)[C@@H](O)[C@H]2O)C=CC1 [NADPH] | 16 | –
O=C(O)CC(=O)C(=O)O [OAA] | – | The enzyme, OAA, and the nicotinamide cofactor
